Measured values from patent US7968585B2, “Inhibitors of 11-beta-hydroxysteroid dehydrogenase 1” (Eli Lilly and Company, priority 2006, dated 2011).

Tests used:
[1] = target: recombinant human 11β-HSD type 1 enzyme (Homo sapiens, UniProt P28845); experiment: 11β-HSD Type 1 Enzyme Assay (NADPH fluorescence); assay type: biochemical; conditions: three hour incubation, read-out: Human 11-βHSD1 IC50
Method: 11β-HSD Type 1 Enzyme Assay
Human 11β-HSD type 1 activity is measured by assaying NADPH production by fluorescence assay. Solid compounds are dissolved in DMSO to a concentration of 10 mM. Twenty microliters of each are then transferred to a column of a 96-well polypropylene Nunc plate where they are further diluted 50-fold followed by subsequent two-fold titration, ten times across the plate with additional DMSO using a Tecan Genesis 200 automated system. Plates are then transferred to a Tecan Freedom 200 system with an attached Tecan Temo 96-well head and an Ultra 384 plate reader. Reagents are supplied in 96-well polypropylene Nunc plates and are dispensed individually into black 96-well Molecular Devices High Efficiency assay plates (40 μL/well capacity) in the following fashion: 9 μL/well of substrate (2.22 mM NADP, 55.5 μM Cortisol, 10 mM Tris, 0.25% Prionex, 0.1% Triton X100), 3 μL/well of water to compound wells or 3 μL to control and standard wells, 6 μL/well recombinant human 11β-HSD type 1 enzyme, 2 μL/well of compound dilutions. […] Plates are then shaken once more for 15 seconds then placed into an Ultra 384 microplate reader (355EX/460EM) for detection of NADPH fluorescence.

cortisone conversion = experiment: Acute In Vivo Cortisone Conversion Assay; conditions: male C57BL/6 mice, oral dose of 10 mg/kg, cortisone challenge after 16 hours, serum cortisol
Method: Acute In Vivo Cortisone Conversion Assay
In general, compounds are dosed orally into mice, the mice are challenged with a subcutaneous injection of cortisone at a set timepoint after compound injection, and the blood of each animal is collected some time later. Separated serum is then isolated and analyzed for levels of cortisone and cortisol by LC-MS/MS, followed by calculation of mean cortisol and percent inhibition of each dosing group. Specifically, male C57BL/6 mice are obtained from Harlan Sprague Dawley at average weight of 25 grams. Exact weights are taken upon arrival and the mice randomized into groups of similar weights. Compounds are prepared in 1% w-w HEC, 0.25% w-w polysorbate 80, 0.05% w-w Dow Corning antifoam #1510-US at various doses based on assumed average weight of 25 grams. Compounds are dosed orally, 200 μl per animal, followed by a subcutaneous dose, 200 μl per animal, of 30 mg/kg cortisone at 1 to 24 hours post compound dose. At 10 minutes post cortisone challenge, each animal is euthanized for 1 minute in a CO2 chamber, followed by blood collection via cardiac puncture into serum separator tubes. Once fully clotted, tubes are spun at 2500×g, 4° C. for 15 minutes, the serum transferred to wells of 96-well plates (Corning Inc, Costar #4410, cluster tubes, 1.2 ml, polypropylene), and the plates are frozen at −20° C. until analysis by LC-MS/MS. […]

11β-HSD1 = target: T1, 11β-HSD1 (Homo sapiens, UniProt P28845); experiment: Human Aortic Smooth Muscle Cell Assay (cortisone to cortisol conversion); assay type: cell-based; conditions: primary human aortic smooth muscle cells (AoSMC), hTNFα induced, cortisol immunoassay
T1 construct: assay medium containing 12 ng/mL hTNFα to induce expression of 11β-HSD1; endogenous in cells; host or cells: primary human aortic smooth muscle cells (AoSMC), induced with hTNFα
Method: Human Aortic Smooth Muscle Cell Assay
Primary human aortic smooth muscle cells (AoSMC) are cultured in 5% FBS growth medium to a passage number of 6, then pelleted by centrifugation and resuspended at a density of 9×10^4 cells/mL in 0.5% FBS assay medium containing 12 ng/mL hTNFα to induce expression of 11β-HSD1. Cells are seeded into 96-well tissue culture assay plates at 100 μL/well (9×10^3 cells/well) and incubated for 48 hours at 37° C., 5% CO2. Following induction, cells are incubated for 4 hours at 37° C., 5% CO2 in assay medium containing test compounds then treated with 10 μL/well of 10 μM cortisone solubilized in assay medium, and incubated for 16 hours at 37° C., 5% CO2. Medium from each well is transferred to a plate for subsequent analysis of cortisol using a competitive fluorescence resonance time resolved immunoassay. In solution, an allophycocyanin (APC)-cortisol conjugate and free cortisol analyte compete for binding to a mouse anti-cortisol antibody/Europium (Eu)-anti mouse IgG complex. Higher levels of free cortisol result in diminishing energy transfer from the Europium-IgG to the APC-cortisol complex resulting in less APC fluorescence. Fluorescent intensities for Europium and APC are measured using a LJL Analyst AD. Europium and APC excitation is measured using 360 nm excitation and 615 nm and 650 nm emission filters respectively. Time resolved parameters for Europium were 1000 μs integration time with a 200 μs delay. APC parameters are set at 150 μs integration time with a 50 μs delay. Fluorescent intensities measured for APC are modified by dividing by the Eu fluorescence (APC/Eu). This ratio is then used to determine the unknown cortisol concentration by interpolation using a cortisol standard curve fitted with a 4-parameter logistic equation. These concentrations are then used to determine compound activity by plotting concentration versus % inhibition, fitting with a 4-parameter curve and reporting the IC50.

T1 sequence (P28845 whole entry): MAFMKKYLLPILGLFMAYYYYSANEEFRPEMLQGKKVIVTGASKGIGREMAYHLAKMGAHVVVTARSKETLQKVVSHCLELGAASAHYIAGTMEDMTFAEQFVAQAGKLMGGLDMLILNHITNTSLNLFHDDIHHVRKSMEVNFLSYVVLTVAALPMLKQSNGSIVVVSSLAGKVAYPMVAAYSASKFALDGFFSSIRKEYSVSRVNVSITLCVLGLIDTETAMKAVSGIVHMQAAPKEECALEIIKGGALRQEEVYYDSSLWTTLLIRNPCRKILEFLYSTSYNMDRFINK
Chain of recombinant human 11β-HSD type 1 enzyme (P28845 whole entry): as above

Row | SMILES | IC50 [1] [µM] | % Inhibition after 16 hours (dose of 10 (mg/kg)) (cortisone conversion) [%] | IC50 (11β-HSD1) [µM]
1 | O=C(c1ccc(-c2cc(Cl)c(CN3CCC4(CCCCC4)C3=O)c(Cl)c2)cc1)N1CCN(CCF)CC1 [Example 6, 2-{3,5-Dichloro-4′-[4-(2-fluoro-ethyl)-piperazine-1-carbonyl]-biphenyl-4-ylmethyl}-2-aza-spiro[4.5]decan-1-one] | 0.888 | 41.2 | 0.0205
2 | O=C1N(Cc2c(Cl)cc(-c3ccc(F)cc3)cc2Cl)CCC12CCc1n[nH]cc1C2 (stereo not shown) [Example 14] | 0.552 | – | 0.0215
3 | O=C(c1ccc(-c2cc(Cl)c(CN3CCC4(CCCCC4)C3=O)c(Cl)c2)cc1)N1CCC(C(F)(F)F)CC1 [Example 5, 2-[3,5-Dichloro-4′-(4-trifluoromethyl-piperidine-1-carbonyl)-biphenyl-4-ylmethyl]-2-aza-spiro[4.5]decan-1-one] | – | 69.3 | 0.047
